Measurements: patent publication US9561228B2 (Celgene Avilomics Research, Inc., priority 2013, dated 2017)
pEC50, pIC50: −log10 of the molar value.

Columns and labels:
[1] = system: ERK1/2 phosphorylation of p90RSK in A375 cells; assay: Detection of total and phosphor-RSK by MSD ELISA (A375); format: cell-based; conditions: Homo sapiens, A-375, read-out: ERK1/ERK2 PRSK A375 EC50
Procedure: Detection of Total and Phosphor-RSK by MSD ELISA (A375)
(§1) The protocol below describes an assay to measure the kinase activity of ERK1/2 to phosphorylate a substrate, p90RSK, in the presence or absence of a test compound.
A375 cells were grown in DMEM/10% FBS. Twenty four hours prior to the assay, 50,000 cells per well were plated in a 96 well flat bottom plate. Once cells attached to the plate, the medium was replaced with 100 ul of DMEM/0.1% FBS. Cells were cultured overnight in an incubator at 37° C.
Compound stock solutions of 10 mM in DMSO were prepared. 1000× dilutions were then prepared in DMSO. 1 uL of DMSO solution was then transferred to 1 ml DMEM/0.1% FBS in a deep well plate. Cell plate media was discarded, followed by addition of 100 uL of the compound-containing media. The preparation was incubated at 37° C. for 2 hrs.
Cell lysates were prepared as described below.
pRSK or Total RSK MSD Assay
(§2) MSD plates: Blank MSD plates were coated with 30 uL capture antibody (BD 610226) at a final concentration of 1 ug/mL in PBS. Both pRSK and total RSK MSD assays used the same capture antibody at the same concentration. Antibody stock concentration was 250 ug/mL. Once antibody solution was added to the MSD plate, the sides were tapped to be certain it was coated completely (visual inspection). It was then covered and placed at 4° C. overnight on a level surface.
(§3) Block MSD Plate: The coating antibody was removed and the plate was washed on a plate washer in MSD wash buffer. The last bit of wash solution was tapped out and 150 uL/well of 3% BSA in MSD wash buffer was added in. The preparation was placed on a shaker at room temperature for at least an hour.
Add samples: Media was removed from compound-treated cells and replaced with 55 uL/well MSD cell lysis buffer containing protease and phosphotase I & II inhibitors. The preparation was incubated on a shaker in a cold room for 30-45 min. The blocked MSD plate was washed a on plate washer, tapping out the last bit of wash solution, followed by addition of 50 uL (of the 55 ul) cell lysate in a well-well transfer. The preparation was covered and incubated on a shaker at room temp for 2 hours. The lysate was removed, washed on a plate washer 3 times, and the last bit of wash buffer was tapped out and replace with 25 uL/well detection antibody (described below).
For pRSK detection, a pRSK antibody stock of 21 ug/mL was prepared as follows: 1 ug/mL pRSK Ser380 antibody (Cell Signaling Technology, Cat. #9335)+1:750 anti-rabbit SulfoTag (Mesoscale Discovery, Cat. # R32AB-1) in 1% BSA in MSD wash buffer.
(§4) For total RSK detection, a total RSK antibody stock of 200 ug/mL was prepared as follows: 1 ug/mL total RSK (Santa Cruz sc-231G) antibody+1:750 anti-goat SulfoTag (from MSD, R32AG-1) in 1% BSA in MSD wash buffer.
The plate was incubated for 1 hr at room temperature on a shaker, followed by three washings. The last bit of wash buffer was tapped out. 150 uL/well 1×MSD Read buffer was added and the plate was then analyzed.

[2] = system: ERK1/2 phosphorylation of p90RSK in HCT116 cells; assay: Detection of total and phospho-RSK by MSD ELISA (HCT116); format: cell-based; conditions: Homo sapiens, HCT-116, read-out: ERK1/ERK2 PRSK HCT116 EC50
Procedure: Detection of Total and Phospho-RSK by MSD ELISA (HCT116)
as §1
HCT116 cells were grown in RPMI/10% FBS. Prior to the assay, 50,000 cells per well were plated in a 96 well flat bottom plate. Cells were cultured overnight in an incubator at 37° C.
Compound stocks were 10 mM in DMSO. A 1000× dilution was made in DMSO. 1 uL of the DMSO solution was transferred to 1 ml RPMI/10% FBS in a deep well plate. Media in the cell plate was discarded, and 100 uL of the compound-containing media was added. The preparation was incubated at 37° C. for 2 hrs.
Preparation of cell lysates are described below.
pRSK or total RSK MSD Assay
as §2, with “to” for “to the”
as §3, with “uL/well” for “uL/well of”, “BSA (MSD Blocker A)” for “BSA”, “added.” for “added in.”
Add samples: Media was removed from compound-treated cells and replaced with 55 uL/well MSD cell lysis buffer containing protease and phosphotase I & II inhibitors. The preparations was incubate on a shaker in a cold room for 30-45 min. The blocked MSD plate was washed on a plate washer, and the last bit of wash solution was tapped out. Next was added 50 uL (of the 55 uL) cell lysate in a well-well transfer. The preparation was covered and incubated on shaker at room temp for 2 hours. The lysate was then removed and washed on plate washer 3 times. The last bit of wash buffer was then tapped out and replaced with 25 uL/well detection antibody (described below).
For pRSK detection, a pRSK antibody stock of 21 ug/mL was prepared as follows: 1 ug/mL pRSK Ser380 antibody (Cell Signaling Technology, Cat. #9335)+1:750 anti-rabbit SulfoTag (from MSD, R32AB-1) in 1% BSA in MSD wash buffer.
as §4
The plate was incubated for 1 hr at room temperature on a shaker, followed by three washes. The last bit of wash buffer was tapped out. Next, 150 uL/well 1×MSD Read buffer was added and the plate was analyzed by the MSD reader.

[3] = system: ERK1/2 phosphorylation of p90RSK in HT29 cells; assay: pRSK MSD Assay in HT29 cells; format: cell-based; conditions: Homo sapiens, HT-29, read-out: ERK1/ERK2 PRSK MSD HT29 EC50
How it was run: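 Serum-starved HT29 cells (0.1% FBS overnight) treated with test compound for 120 min at 37° C, then lysed with protease and phosphatase inhibitors. Phospho-p90RSK quantified by MSD sandwich immunoassay: RSK capture antibody, phospho-RSK detection antibody plus Sulfo-tagged antibody, electrochemiluminescence read.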

[4] = target: T1, MEK1 activated ERK1 (Homo sapiens, UniProt P27361); assay: Omnia continuous-read kinase assay for potency against MEK1 activated ERK1; format: biochemical; conditions: ATP at KM, WT
T1 construct: purchased Millipore (Billerica, Mass.) 14-439-K
How it was run: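 Apparent IC50 came from initial reaction slopes (RFU vs time) plotted against log inhibitor with a variable-slope fit. Reactions were started with ERK1 (4 nM final) added to 50 μM ATP, roughly at its appKM, and 10 μM Sox-conjugated ST17 peptide in 20 mM Tris pH 7.5, 5 mM MgCl2. Fluorescence was monitored every 71 seconds.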

T1 sequence (P27361 whole entry): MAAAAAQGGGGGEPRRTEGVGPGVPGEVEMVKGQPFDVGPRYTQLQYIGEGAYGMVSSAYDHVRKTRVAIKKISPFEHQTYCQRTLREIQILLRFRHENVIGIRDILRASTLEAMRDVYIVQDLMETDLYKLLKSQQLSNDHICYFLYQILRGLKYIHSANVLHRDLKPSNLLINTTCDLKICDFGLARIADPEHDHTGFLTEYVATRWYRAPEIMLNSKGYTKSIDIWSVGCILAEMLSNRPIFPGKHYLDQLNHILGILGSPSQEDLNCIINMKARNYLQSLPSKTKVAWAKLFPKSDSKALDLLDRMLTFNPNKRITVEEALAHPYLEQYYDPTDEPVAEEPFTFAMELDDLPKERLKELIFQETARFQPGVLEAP

pEC50 [1] | pEC50 [2] | pEC50 [3] | pIC50 [4] | Compound
< 6.00 | 6.30 to 7.00 | 6.30 to 7.00 | – | C=CC(=O)Nc1cc(C)ccc1Nc1nc(Nc2cc(OC)nc(N3CCC3)c2)ncc1C(F)(F)F [Compound I-329, N-(2-((2-((2-(azetidin-1-yl)-6-methoxypyridin-4-yl)amino)-5-(trifluoromethyl)pyrimidin-4-yl)amino)-5-methylphenyl)acrylamide]
6.00 to 6.30 | < 6.00 | – | – | C=CC(=O)Nc1cc(C)ccc1Nc1nc(Nc2cnnc(Cl)c2)ncc1C(F)(F)F [Compound I-331, N-(2-((2-((6-chloropyridazin-4-yl)amino)-5-(trifluoromethyl)pyrimidin-4-yl)amino)-5-methylphenyl)acrylamide]
< 6.00 | > 7.00 | > 7.00 | – | C=CC(=O)Nc1cc(OC)ccc1Nc1nc(Nc2cc(OC)nc(N3CCN(C(C)=O)CC3)c2)ncc1Cl [Compound I-297, N-(2-((2-((2-(4-acetylpiperazin-1-yl)-6-methoxypyridin-4-yl)amino)-5-chloropyrimidin-4-yl)amino)-5-methoxyphenyl)acrylamide]
< 6.00 | < 6.00 | – | – | CCC(=O)Nc1cc(C)ccc1Nc1nc(Nc2cc(OC)ncc2C)ncc1C(F)(F)F [Compound I-352, N-(2-((2-((2-methoxy-5-methylpyridin-4-yl)amino)-5-(trifluoromethyl)pyrimidin-4-yl)amino)-5-methylphenyl)propionamide]
< 6.00 | < 6.00 | < 6.00 | – | C=CC(=O)Nc1cc(C)ccc1Nc1nc(N[C@H]2CCCN(S(=O)(=O)C=C)C2)ncc1C(F)(F)F [Compound I-277, (S)—N-(5-Methyl-2-((5-(trifluoromethyl)-2-((1-(vinylsulfonyl)piperidin-3-yl)amino)pyrimidin-4-yl)amino)phenyl)acrylamide]
< 6.00 | < 6.00 | – | – | C=CC(=O)Nc1cc(C)ccc1Nc1nc(N[C@@H]2CCN(S(=O)(=O)C=C)C2)ncc1C(F)(F)F [Compound I-280, (R)—N-(5-Methyl-2-((5-(trifluoromethyl)-2-((1-(vinylsulfonyl)pyrrolidin-3-yl)amino)pyrimidin-4-yl)amino)phenyl)acrylamide]

Second part, the compound before the results:

Compound | pEC50 [1] | pEC50 [2] | pEC50 [3] | pIC50 [4]
C=CC(=O)Nc1cc(Cl)ccc1Nc1nc(Nc2cc(OC)ncc2C)ncc1C(F)(F)F [Compound I-289, N-(5-Chloro-2-((2-((2-methoxy-5-methylpyridin-4-yl)amino)-5-(trifluoromethyl)pyrimidin-4-yl)amino)phenyl)acrylamide] | > 7.00 | 6.30 to 7.00 | > 7.00 | –
C=CC(=O)Nc1ccccc1Nc1nc(Nc2ccnc(NC)c2)ncc1C(F)(F)F [Compound I-321, N-(2-((2-((2-(methylamino)pyridin-4-yl)amino)-5-(trifluoromethyl)pyrimidin-4-yl)amino)phenyl)acrylamide] | < 6.00 | < 6.00 | < 6.00 | –
C=CC(=O)Nc1cc(OCC(=O)N2CCN(S(C)(=O)=O)CC2)ccc1Nc1nc(Nc2cc(OC)ncc2C)ncc1C(F)(F)F [Compound I-405, N-(2-((2-((2-methoxy-5-methylpyridin-4-yl)amino)-5-(trifluoromethyl)pyrimidin-4-yl)amino)-5-(2-(4-(methylsulfonyl)piperazin-1-yl)-2-oxoethoxy)phenyl)acrylamide] | 6.30 to 7.00 | > 7.00 | > 7.00 | –
C=CC(=O)Nc1cc(OC(C)(C)C(N)=O)ccc1Nc1nc(Nc2cc(OC)ncc2C)ncc1C(F)(F)F [Compound I-414, N-(5-((1-amino-2-methyl-1-oxopropan-2-yl)oxy)-2-((2-((2-methoxy-5-methylpyridin-4-yl)amino)-5-(trifluoromethyl)pyrimidin-4-yl)amino)phenyl)acrylamide] | > 7.00 | – | > 7.00 | > 7.00
C=CC(=O)Nc1cc(C)ccc1Nc1nc(Nc2cc(OC)ncc2OC)ncc1C(F)(F)F [Compound I-406, N-(2-((2-((2,5-dimethoxypyridin-4-yl)amino)-5-(trifluoromethyl)pyrimidin-4-yl)amino)-5-methylphenyl)acrylamide] | 6.30 to 7.00 | 6.30 to 7.00 | 6.30 to 7.00 | –
C=CC(=O)Nc1ccccc1Nc1nc(Nc2cc(OC)nc(N3CCN(S(C)(=O)=O)CC3)c2)ncc1C(F)(F)F [Compound I-290, N-(2-((2-((2-Methoxy-6-(4-(methylsulfonyl)piperazin-1-yl)pyridin-4-yl)amino)-5-(trifluoromethyl)pyrimidin-4-yl)amino)phenyl)acrylamide] | < 6.00 | 6.00 to 6.30 | < 6.00 | –
C=CC(=O)Nc1ccccc1Nc1nc(Nc2c[nH]nc2C)ncc1C(F)(F)F [Compound I-330, N-(2-((2-((3-methyl-1H-pyrazol-4-yl)amino)-5-(trifluoromethyl)pyrimidin-4-yl)amino)phenyl)acrylamide] | 6.30 to 7.00 | < 6.00 | – | –
C=CC(=O)Nc1cc(C)ccc1Nc1nc(N[C@@H]2CCCN(S(=O)(=O)C=C)C2)ncc1C(F)(F)F [Compound I-278, (R)—N-(5-Methyl-2-((5-(trifluoromethyl)-2-((1-(vinylsulfonyl)piperidin-3-yl)amino)pyrimidin-4-yl)amino)phenyl)acrylamide] | < 6.00 | < 6.00 | < 6.00 | –
